One series has as its target human cathepsin B. Also noted: method as in data provided by Celera Genomics. Conditions: historical data; ref data provided by Celera Genomics; read-out: Ki catB; cited from earlier work.
For the next series, the target named is human cathepsin L. Also noted: method as in data provided by Celera Genomics. Conditions: historical data; ref data provided by Celera Genomics; read-out: Ki catL; cited from earlier work.
The target in the next series is T1, rhodesain (Trypanosoma brucei rhodesiense, UniProt Q95PM0).
T1 construct: made in house
The experiment in a line: Rhodesain protease inhibition assay (Z-Phe-Arg-AMC). The format is biochemical. On the procedure:
(§1) Recombinant cruzain, rhodesain, TbCatB, falcipain-2 and falcipain-3 were expressed as described previously, [39], [40], [41], [42]. Inhibitor stock solutions were prepared in DMSO and screened at 0.1 µM for cruzain and rhodesain, 1 µM for TbCatB and 50 nM for falcipain-3 (0.5% DMSO in assay). […] Protease inhibition assays for cruzain and rhodesain were carried out in 96 well plate format as described previously. Cruzain (4 nM), rhodesain (4 nM) or TbCatB (258 nM) was incubated with test compound in 100 mM sodium acetate, pH 5.5, containing 5 mM DTT and 0.01% Triton X-100 (buffer A), for 5 min at room temperature (the higher concentration of TbCatB was required due to its lower intrinsic activity against the fluorogenic substrate). Then buffer A containing Z-Phe-Arg-AMC (Bachem) was added to enzyme-compound mixture to give 10 µM substrate in a final assay volume of 200 µL. The rate of free AMC release was measured at excitation and emission wavelengths of 355 and 460 nm, respectively, with a microtiter plate spectrofluorimeter (SpectraMax M5, Molecular Devices) for 3 min. Percentage inhibition of test compound was calculated relative to the DMSO control (0% inhibition control). IC50 values were determined with Prism 4 software (GraphPad, San Diego, CA) using sigmoidal dose-response variable slope model.

Series [1] relates to T. brucei brucei clone 427-221a bloodstream forms. The experiment in a line: T. brucei brucei growth inhibition assay. The format is cell-based. Conditions: Trypanosoma brucei; 40 hours. The protocol: The growth inhibition assay for T. brucei brucei was conducted as described previously. Bloodstream forms of the monomorphic T. brucei brucei clone 427-221a were grown in complete HMI-9 medium containing 10% FBS, 10% Serum Plus medium (Sigma Inc. St. Louis Mo. USA), 50 U/mL penicillin and 50 µg/mL streptomycin (Invitrogen) at 37°C under a humidified atmosphere and 5% CO2. […] 5 µL of each dilution was added to 95 µL of diluted parasites (1×10^4 cells per well) in sterile Greiner 96-well flat white opaque culture plates such that the final DMSO concentration was 0.5%. The 0% inhibition control wells contained 0.5% DMSO while 100% inhibition control wells contained 50 µM thimerosal (Sigma). After compound addition, plates were incubated for 40 hours at 37°C. At the end of the incubation period, 50 µL of CellTiter-Glo™ reagent (Promega Inc., Madison, WI, USA) was added to each well and plates were placed on an orbital shaker at room temperature for 2 min to induce lysis. After an additional 10 min incubation without shaking to stabilize the signal, the ATP-bioluminescence of each well was determined using an Analyst HT plate reader (Molecular Devices, Sunnyvale, CA, USA). Raw values were converted to log10 and percentage inhibition calculated relative to the controls. IC50 curve fittings were performed with Prism 4 software as above.

Series [2] can be described thus: Jurkat cell cytotoxicity assay. Conditions: human, Jurkat cells (clone E6-1), read-out: Cytotoxicity (% inhibition at 10 µM) Jurkat cells. Format: cell-based. The protocol: (§2) Jurkat cells (clone E6-1) were grown in complete RPMI-1640 medium containing 10% FBS, 50 U/mL penicillin and 50 µg/mL streptomycin (Invitrogen) at 37°C under a humidified atmosphere and 5% CO2. For cytotoxicity testing, cells were diluted to 1×10^5 per ml in complete RPMI-1640 medium. Test compound stocks were prepared in 100% DMSO and screened at 10 µM against cells (1×10^4 cells per well) in sterile Greiner 96-well flat white opaque culture plates (0.5% final DMSO concentration). The 0% inhibition control wells contained 0.5% DMSO while 100% inhibition control wells contained 40 µM staurosporine. After compound addition, plates were incubated for 40 hr at 37°C. At the end of the incubation period, 50 µL of CellTiter-Glo™ reagent (Promega Inc., Madison, WI, USA) was added to each well and plates were placed on an orbital shaker at room temperature for 2 min to induce lysis. After a further 10 min incubation without shaking to stabilize the signal, the ATP-bioluminescence of each well was determined using an Analyst HT plate reader (Molecular Devices, Sunnyvale, CA, USA). Calculations of percentage inhibition and IC50 were performed similar to those in the T. brucei brucei assay.

The target of another series is T2, TbCatB (Trypanosoma brucei, UniProt Q6R7Z5).
T2 construct: made in house
T2 sequence (Q6R7Z5 23-340): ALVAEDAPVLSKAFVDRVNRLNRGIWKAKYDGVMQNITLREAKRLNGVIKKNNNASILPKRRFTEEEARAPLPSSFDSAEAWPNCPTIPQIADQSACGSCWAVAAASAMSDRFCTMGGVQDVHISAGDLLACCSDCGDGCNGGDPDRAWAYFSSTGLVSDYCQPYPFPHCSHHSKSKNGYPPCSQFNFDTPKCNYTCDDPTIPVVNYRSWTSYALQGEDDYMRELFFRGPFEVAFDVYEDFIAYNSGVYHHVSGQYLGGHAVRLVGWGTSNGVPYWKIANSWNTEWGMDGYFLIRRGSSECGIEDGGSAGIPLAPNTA
Briefly: TbCatB protease inhibition assay (Z-Phe-Arg-AMC). Format: biochemical. The protocol:
as §1

Series [3] relates to intracellular T. cruzi (CA-I/72) in BESM cells. Briefly: T. cruzi amastigote growth inhibition assay. Conditions: Trypanosoma cruzi; infected BESM cells, 72 hours. Format: cell-based. On the procedure:
(§3) The growth inhibition assay for the intracellular T. cruzi was conducted in 96-well plate format as described previously. Briefly, bovine embryo skeletal muscle (BESM) cells (2×10^3/well), seeded overnight, were infected with CA-I/72 T. cruzi trypomastigotes (2×10^3/well). Sixteen hours post-infection, test compounds (serial dilution concentrations starting from 20 µM) were added and assay plates were incubated for an additional 72 hours at 37°C with 5% CO2. Cells were then washed once in PBS, fixed with 4% paraformaldehyde and stained with DNA fluorescent dye DAPI (4′ 6-diamidino-2-phenylindole). The assay plates were then imaged in the IN Cell Analyzer 2000 (GE Healthcare) with the excitation and emission filters set of 350 nm and 460 nm, respectively, to detect DAPI signals. The feature extraction module in IN Cell Developer Toolbox 1.7 software was used to count host nuclei and parasite kinetoplasts by size difference.

The target in the next series is T3, cruzain (Trypanosoma cruzi, UniProt P25779).
T3 construct: made in house
The experiment in a line: Cruzain protease inhibition assay (Z-Phe-Arg-AMC). Format: biochemical. The protocol: as §1

Series [4] in a line: Toxicity toward host BESM cells in the T. cruzi assay. The format is cell-based, bovine. Conditions: bovine; highest assay concentration 20 µM. On the procedure:
as §3
(§4) All falcipain-3 inhibitors were also tested against falcipain-2. […] The entire library was examined for cytotoxicity to a mammalian cell line (Jurkat) at a concentration of 10 µM, and those compounds studied in the T. cruzi assay were also evaluated for toxicity (at 20 µM) toward the host BESM cells used in that assay. […]

The test system of series [5] is Jurkat cells (clone E6-1). The experiment in a line: Jurkat cell cytotoxicity assay. Format: cell-based. Conditions: 40 hr. The protocol:
as §2

In series [6] the test system is bovine embryo skeletal muscle (BESM) cells. Briefly: Toxicity toward host BESM cells in the T. cruzi assay. Conditions: 20 µM. Format: cell-based. The protocol: as §3, §4

Structures are written as SMILES.

One may read the Ki as a measure of affinity in units of concentration, obtained from inhibition or displacement. One may read the IC50 as the point on the concentration scale where inhibition reaches its midpoint. Higher therefore signals weaker potency in that assay. As usually defined, the GI50 is the concentration giving 50% growth inhibition. Read a high GI50 as lower sensitivity of the cells.

T3 sequence (P25779 123-467): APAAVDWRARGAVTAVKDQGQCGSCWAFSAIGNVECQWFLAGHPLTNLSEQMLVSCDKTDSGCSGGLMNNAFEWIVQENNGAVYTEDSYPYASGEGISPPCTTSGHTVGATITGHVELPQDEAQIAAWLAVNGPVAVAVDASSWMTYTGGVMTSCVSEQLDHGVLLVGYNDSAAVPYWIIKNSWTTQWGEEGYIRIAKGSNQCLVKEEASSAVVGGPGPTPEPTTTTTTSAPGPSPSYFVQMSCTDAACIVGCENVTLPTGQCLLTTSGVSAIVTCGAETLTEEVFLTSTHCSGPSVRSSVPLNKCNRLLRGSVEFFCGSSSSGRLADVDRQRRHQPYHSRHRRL
T1 sequence (Q95PM0 entry or part of it): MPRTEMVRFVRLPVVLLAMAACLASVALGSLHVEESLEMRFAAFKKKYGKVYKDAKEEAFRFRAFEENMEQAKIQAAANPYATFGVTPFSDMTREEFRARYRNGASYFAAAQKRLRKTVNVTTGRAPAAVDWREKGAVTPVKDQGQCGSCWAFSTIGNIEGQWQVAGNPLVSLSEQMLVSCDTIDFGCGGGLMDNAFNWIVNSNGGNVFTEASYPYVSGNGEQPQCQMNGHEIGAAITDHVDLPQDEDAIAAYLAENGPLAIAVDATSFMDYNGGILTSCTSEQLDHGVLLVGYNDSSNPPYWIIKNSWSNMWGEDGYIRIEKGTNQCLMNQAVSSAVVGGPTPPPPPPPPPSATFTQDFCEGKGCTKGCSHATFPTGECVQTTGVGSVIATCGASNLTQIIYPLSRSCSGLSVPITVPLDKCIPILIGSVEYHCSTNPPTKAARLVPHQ

With `CCCCC(NC(=O)C(CCC)NC(c1ccc(-c2ccc(S(C)(=O)=O)cc2)cc1)C(F)(F)F)C(=O)c1nnc(-c2ccco2)o1` (stereo not drawn) [Compound 24], the figures for the Ki at human cathepsin B and at human cathepsin L were 1.6 nM and 18 nM, respectively. Further, the values for the IC50 at rhodesain, against TbCatB and at cruzain were 6 nM, 50 nM and 10 nM, respectively. For the same compound, the values for the GI50 in [1] and in [3] were 7000 nM and 7600 nM, respectively. Moreover, in [2], the cytotoxicity at 40 h, 10 µM was under 5%. The GI50 at 72 h in series [4] was over 20000 nM.

Turning to `CC(C)CC(NC(=O)c1ccc(-c2csc(Nc3ccncc3)n2)cc1)C(=O)NCCN(CC(C)C)CC(C)C` (stereo not drawn) [Compound 22], the Ki at human cathepsin B is 4500 nM; on human cathepsin L, 71 nM. Besides, the IC50 is 640 nM on rhodesain and 1600 nM on cruzain. For the same compound, the GI50 in series [1] came to 200 nM; in series [3], 800 nM. The cytotoxicity at 40 h, 10 µM in series [2] was under 5%. The “Cytotoxicity (% inhibition at 10 µM) Jurkat cells” value in [5] was “did not inhibit the growth”. Besides, the “Inhibition of growth of BESM cells” value in [6] is given as about 90%.

These data come from article PMC3086806, “Mining a Cathepsin Inhibitor Library for New Antiparasitic Drug Leads” (PLoS Neglected Tropical Diseases, 2011).
